# According to patent US20100267561A1, “HERBICIDAL PYRIDAZINONE DERIVATIVES” (priority 2007, published 2010):
# What was measured:
# [1] = system: winter wheat (TRZAW, Triticum aestivum); experiment: Test G mixtures of Compound 26 with crop safeners, postemergence plant response; format: in vivo; conditions: applied alone
# Experimental: (§1) This test evaluated the effect of mixtures of Compound 26 with commercial crop safeners cloquintocet-mexyl, mefenpyr-diethyl, and fenchlorazole-ethyl on three plant species. Seeds of winter wheat (TRZAW, Triticum aestivum), winter barley (HORVX, Hordeum vulgare), and wild oat (AVEFA, Avena fatua) (a weed) were planted into a silt loam soil. Plants from these seeds were treated postemergence using test chemicals formulated in a non-phytotoxic solvent mixture that included a surfactant. Plants ranged in height from 6 to 10 cm (2- to 3-leaf stage).
# (§2) Plants were grown in a greenhouse using supplemental lighting to maintain a photoperiod of about 14 hours; daytime and nighttime temperatures were about 22-26° C. and 15-19° C., respectively. Balanced fertilizer was applied through the watering system. Treatments consisted of Compound 26 and the above mentioned safeners alone and in combination using a spray volume of 281 L/ha. Each treatment was replicated four times. Treated plants and controls were maintained in a greenhouse for 15 days, after which time all treated plants were compared to controls and visually evaluated. Plant response ratings were calculated as the means of the four replicates based on a scale of 0 to 100 where 0 is no effect and 100 is complete control and are summarized in Tables G1 to G3. Because the safeners alone caused no injury at the rates tested, the expected effect of a mixture of Compound 26 with a safener is the same as the observed effect of Compound 26 alone.
# (§3) The highest application rate of each safener was tested alone to confirm the absence of herbicidal activity on the test species when appled postemergence at 125 g ai/ha. Therefore, an extrapolated result of zero for each safener alone at 16, 31, or 62 g ai/ha was used to calculate the mixture response of Compound 26 and these safener application rates.
# [2] = system: winter barley (HORVX, Hordeum vulgare); experiment: as above; format: in vivo; conditions: applied alone
# Experimental: as §1, §2, §3
smiles,measurement,setting,value
"CCc1c(C)c(-c2ccc(Cl)cc2)nn1-c1c(O)cnn(C)c1=O [Compound 26, 4-[3-(4-chlorophenyl)-5-ethyl-4-methyl-1H-pyrazol-1-yl]-5-hydroxy-2-methyl-3(2H)-pyridazinone]","TRZAW Obsd. (observed effect) plant response rating, scale 0 to 100",[1]; 62 g a.i./ha,10
same,"TRZAW Obsd. (observed effect) plant response rating, scale 0 to 100",[1]; 125 g a.i./ha,9
same,"TRZAW Obsd. (observed effect) plant response rating, scale 0 to 100",[1]; 250 g a.i./ha,36
same,"HORVX Obsd. (observed effect) plant response rating, scale 0 to 100",[2]; 62 g a.i./ha,19
same,"HORVX Obsd. (observed effect) plant response rating, scale 0 to 100",[2]; 125 g a.i./ha,34
same,"HORVX Obsd. (observed effect) plant response rating, scale 0 to 100",[2]; 250 g a.i./ha,45
